Assay results reported in patent US20190105367A1, “ANTIMICROBIAL 4-OXOQUINOLIZINES” (Emergent Product Development Gaithersburg Inc., priority 2011, published 2019).
Converted amounts (≈) assume the structure as drawn. Where two headings read alike, the source gives them in different places.

Tests used:
A. baumannii ATCC 19606 [1] = experiment: MIC without and with sub-inhibitory polymyxin B (Example 4); assay type: cell-based, Acinetobacter baumannii; details: for MIC without PB/MIC + PB: A. baumannii ATCC 19606
A. baumannii J2 [2] = experiment: Preliminary MBC without and with sub-inhibitory polymyxin B (Example 4); assay type: cell-based, Acinetobacter baumannii; details: Acinetobacter baumannii, preliminary MBC
[3] = tested on: Acinetobacter sp. (H064200250); experiment: as above; assay type: cell-based; details: Acinetobacter, preliminary MBC
Procedure, shortened: (§1)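 Read-out: the minimum concentration at which colonies were reduced by ca. 90% relative to positive control, usually seen as isolated colonies or a clear plate. Plates had been kept 18-20 hours at 37° C beforehand.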

A. baumannii ATCC 19606 [4] = experiment: as above; assay type: cell-based, Acinetobacter baumannii; details: Acinetobacter baumannii
A. baumannii NCTC 13301 [5] = experiment: MIC without and with sub-inhibitory polymyxin B (Example 4); assay type: cell-based, Acinetobacter baumannii; details: +[…] PB, 2nd experiment
A. baumannii A401 [6] = experiment: as above; assay type: cell-based, Acinetobacter baumannii; details: for MIC: Acinetobacter baumannii
[7] = tested on: Acinetobacter sp. (H064200250); experiment: as above; assay type: cell-based; details: for MIC: Acinetobacter
A. baumannii NCTC 13301 [8] = experiment: as above; assay type: cell-based, Acinetobacter baumannii
A. baumannii A387 [9] = experiment: Preliminary MBC without and with sub-inhibitory polymyxin B (Example 4); assay type: cell-based, Acinetobacter baumannii; details: Acinetobacter baumannii
A. baumannii J2 [10] = experiment: MIC without and with sub-inhibitory polymyxin B (Example 4); assay type: cell-based, Acinetobacter baumannii; details: for MIC without PB/MIC + PB: A. baumannii J2; for MIC: Acinetobacter baumannii
A. baumannii A14 [11] = experiment: as above; assay type: cell-based, Acinetobacter baumannii; details: 1st experiment
A. baumannii A489 [12] = experiment: as above; assay type: cell-based, Acinetobacter baumannii; details: for MIC without PB/MIC + PB: A. baumannii A489; for MIC: Acinetobacter baumannii
A. baumannii A390 = experiment: Preliminary MBC without and with sub-inhibitory polymyxin B (Example 4); assay type: cell-based, Acinetobacter baumannii; details: Acinetobacter baumannii, A390, A. baumannii A390, +0.06 μg/ml PB, 2nd experiment, read-out: MBC
Procedure, shortened: as §1

A. baumannii NCTC 13301 [13] = experiment: as above; assay type: cell-based, Acinetobacter baumannii; details: Acinetobacter baumannii
Procedure, shortened: as §1

A. baumannii A473 [14] = experiment: as above; assay type: cell-based, Acinetobacter baumannii; details: Acinetobacter baumannii, A473, A. baumannii A473, +0.06 μg/ml PB, 2nd experiment, read-out: MBC
Procedure, shortened: as §1

A. baumannii A14 [15] = experiment: as above; assay type: cell-based, Acinetobacter baumannii; details: A. baumannii A14, +0.06 μg/ml PB, 2nd experiment
Procedure, shortened: as §1

A. baumannii A329 [16] = experiment: MIC without and with sub-inhibitory polymyxin B (Example 4); assay type: cell-based, Acinetobacter baumannii; details: +0.06 μg/ml PB, 2nd experiment
A. baumannii A401 [17] = experiment: Preliminary MBC without and with sub-inhibitory polymyxin B (Example 4); assay type: cell-based, Acinetobacter baumannii; details: Acinetobacter baumannii
A. baumannii A473 [18] = experiment: MIC without and with sub-inhibitory polymyxin B (Example 4); assay type: cell-based, Acinetobacter baumannii; details: A. baumannii A473; +0.06 μg/ml PB; 2nd experiment
A. baumannii A387 [19] = experiment: as above; assay type: cell-based, Acinetobacter baumannii; details: for MIC without PB/MIC + PB: A. baumannii A387
A. baumannii A489 [20] = experiment: Preliminary MBC without and with sub-inhibitory polymyxin B (Example 4); assay type: cell-based, Acinetobacter baumannii; details: Acinetobacter baumannii, preliminary MBC
A. baumannii A329 [21] = experiment: as above; assay type: cell-based, Acinetobacter baumannii; details: Acinetobacter baumannii, A329, A. baumannii A329, +0.06 μg/ml PB, 2nd experiment, read-out: MBC
A. baumannii A14 [22] = experiment: as above; assay type: cell-based, Acinetobacter baumannii; details: A. baumannii A14; +0.06 μg/ml polymyxin B; preliminary MBC; 1st experiment
[23] = tested on: strains of A. baumannii and one strain of Acinetobacter sp.; experiment: MIC with sub-inhibitory concentrations (0.25x MIC) of polymyxin B, panel of Acinetobacter strains (Example 4); assay type: cell-based
[24] = ratio, PB 0.06 μg/ml, 1st experiment

## Cc1c(-c2ccc(CN)c(F)c2)ccn2c(=O)c(C(=O)O)cc(C3CC3)c12 [Compound 4, 8-(3-fluoro-4-aminomethyl-phenyl)-1-cyclopropyl-9-methyl-4-oxo-quinolizine-3-carboxylic acid]
A. baumannii ATCC 19606 [1]; +0.06 μg/ml PB, 2nd experiment
  MIC without PB/MIC + PB: ≥16
A. baumannii ATCC 19606 [1]; [24]
  MIC without PB/MIC + PB: 2
A. baumannii ATCC 19606 [1]; Acinetobacter baumannii, ATCC19606, read-out: MIC +0.06 μg/ml PB, A. baumannii ATCC 19606, +0.06 μg/ml polymyxin B, 1st experiment
  MIC: 0.125 µg/mL
A. baumannii J2 [2]; J2, A. baumannii J2, +[…] PB, 2nd experiment, read-out: MBC
  MBC: 0.06 µg/mL (≈ 0.164 µM)
A. baumannii J2 [2]; J2, read-out: MBC +[…] PB, A. baumannii J2, +[…] polymyxin B, 1st experiment
  MBC: 1 µg/mL (≈ 2.73 µM)
[3]; Acinetobacter spp. H064200250 (OXA51), +[…] PB, 2nd experiment, read-out: MBC
  MBC: 0.5 µg/mL (≈ 1.36 µM)
[3]; read-out: MBC +[…] PB, Acinetobacter spp. H064200250, +[…] polymyxin B, 1st experiment
  MBC: 8 µg/mL (≈ 21.8 µM)
A. baumannii ATCC 19606 [4]; ATCC19606, A. baumannii ATCC 19606, +0.06 μg/ml PB, 2nd experiment, read-out: MBC
  MBC: ≤ 0.03 µg/mL
A. baumannii ATCC 19606 [4]; ATCC19606, read-out: MBC +0.06 μg/ml PB, A. baumannii ATCC 19606, +0.06 μg/ml polymyxin B, 1st experiment
  MBC: 0.06 µg/mL
A. baumannii NCTC 13301 [5]; A. baumannii NCTC 13301
  MIC without PB/MIC + PB: 128
A. baumannii NCTC 13301 [5]; Acinetobacter baumannii, NCTC13301, A. baumannii NCTC 13301, read-out: MIC
  MIC: 0.25 µg/mL (≈ 0.682 µM)
A. baumannii A401 [6]; A baumannii A 401, ratio, PB 0.06 μg/ml, 1st experiment
  MIC without PB/MIC + PB: 4
A. baumannii A401 [6]; A401, A baumannii A 401, +0.06 μg/ml PB, 2nd experiment, read-out: MIC
  MIC: 0.5 µg/mL (≈ 1.36 µM)
A. baumannii A401 [6]; A401, read-out: MIC +0.06 μg/ml PB, A baumannii A 401, +0.06 μg/ml polymyxin B, 1st experiment
  MIC: 4 µg/mL
[7]; Acinetobacter spp. H064200250 (OXA51), +[…] PB, 2nd experiment
  MIC without PB/MIC + PB: 64
[7]; Acinetobacter spp. H064200250, ratio, PB […], 1st experiment
  MIC without PB/MIC + PB: 4
[7]; Acinetobacter spp. H064200250 (OXA51), +[…] PB, 2nd experiment, read-out: MIC
  MIC: 0.5 µg/mL (≈ 1.36 µM)
[7]; read-out: MIC +[…] PB, Acinetobacter spp. H064200250, +[…] polymyxin B, 1st experiment
  MIC: 4 µg/mL (≈ 10.9 µM)
A. baumannii NCTC 13301 [8]; A. baumannii NCTC 13301, ratio, PB […], 1st experiment
  MIC without PB/MIC + PB: 8
A. baumannii NCTC 13301 [8]; Acinetobacter baumannii, NCTC13301, read-out: MIC +[…] PB
  MIC: 1 µg/mL (≈ 2.73 µM)
A. baumannii A387 [9]; A387, A. baumannii A387, +0.06 μg/ml PB, 2nd experiment, read-out: MBC
  MBC: 0.5 µg/mL (≈ 1.36 µM)
A. baumannii A387 [9]; A387, read-out: MBC +0.06 μg/ml PB, A. baumannii A387, +0.06 μg/ml polymyxin B, 1st experiment
  MBC: 1 µg/mL
A. baumannii J2 [10]; +[…] PB, 2nd experiment
  MIC without PB/MIC + PB: 128
A. baumannii J2 [10]; ratio, PB […], 1st experiment
  MIC without PB/MIC + PB: 4
A. baumannii J2 [10]; J2, A. baumannii J2, +[…] PB, 2nd experiment, read-out: MIC
  MIC: 0.06 µg/mL (≈ 0.164 µM)
A. baumannii J2 [10]; J2, read-out: MIC +[…] PB, A. baumannii J2, +[…] polymyxin B, 1st experiment
  MIC: 2 µg/mL (≈ 5.46 µM)
A. baumannii A14 [11]; +0.06 μg/ml polymyxin B
  MIC +0.06 μg/ml PB: 8 µg/mL
A. baumannii A14 [11]; ratio, PB 0.06 μg/ml
  MIC without PB/MIC + PB: 4
A. baumannii A489 [12]; +[…] PB, 2nd experiment
  MIC without PB/MIC + PB: ≥512
A. baumannii A489 [12]; ratio, PB […], 1st experiment
  MIC without PB/MIC + PB: 8
A. baumannii A489 [12]; A489, A. baumannii A489, +[…] PB, 2nd experiment, read-out: MIC
  MIC: ≤ 0.03 µg/mL
A. baumannii A489 [12]; A489, read-out: MIC +[…] PB, A. baumannii A489, +[…] polymyxin B, 1st experiment
  MIC: 1 µg/mL (≈ 2.73 µM)
A. baumannii A390
  MBC: 0.5 µg/mL (≈ 1.36 µM)
A. baumannii NCTC 13301 [13]; NCTC13301, A. baumannii NCTC 13301, +[…] PB, preliminary MBC, 2nd experiment, read-out: MBC
  MBC: 0.25 µg/mL (≈ 0.682 µM)
A. baumannii NCTC 13301 [13]; NCTC13301, read-out: MBC +[…] PB
  MBC: 0.5 µg/mL (≈ 1.36 µM)
A. baumannii A473 [14]
  MBC: 0.25 µg/mL (≈ 0.682 µM)
A. baumannii A14 [15]
  MBC: 8 µg/mL (≈ 21.8 µM)
A. baumannii A329 [16]; A. baumannii A329
  MIC without PB/MIC + PB: 2
A. baumannii A329 [16]; Acinetobacter baumannii, A329, A. baumannii A329, read-out: MIC
  MIC: 8 µg/mL (≈ 21.8 µM)
A. baumannii A401 [17]; A401, A baumannii A 401, +0.06 μg/ml PB, 2nd experiment, read-out: MBC
  MBC: 0.5 µg/mL (≈ 1.36 µM)
A. baumannii A401 [17]; A401, read-out: MBC +0.06 μg/ml PB, A baumannii A 401, +0.06 μg/ml polymyxin B, 1st experiment
  MBC: 2 µg/mL
A. baumannii A473 [18]
  MIC: 0.25 µg/mL (≈ 0.682 µM)
  MIC without PB/MIC + PB: 32
A. baumannii A387 [19]; +0.06 μg/ml PB, 2nd experiment
  MIC without PB/MIC + PB: 8
A. baumannii A387 [19]; [24]
  MIC without PB/MIC + PB: 2
A. baumannii A387 [19]; Acinetobacter baumannii, A387, read-out: MIC +0.06 μg/ml PB, A. baumannii A387, +0.06 μg/ml polymyxin B, 1st experiment
  MIC: 1 µg/mL
A. baumannii A489 [20]; A489, A. baumannii A489, +[…] PB, 2nd experiment, read-out: MBC
  MBC: 0.06 µg/mL (≈ 0.164 µM)
A. baumannii A489 [20]; A489, read-out: MBC +[…] PB, A. baumannii A489, +[…] polymyxin B, 1st experiment
  MBC: 1 µg/mL (≈ 2.73 µM)
A. baumannii A329 [21]
  MBC: 8 µg/mL (≈ 21.8 µM)
A. baumannii A14 [22]
  MBC +0.06 μg/ml PB: 8 µg/mL
[23]; 1st experiment
  Range ratios MIC without PB/MIC with PB Oct. 1, 2008 n = 8: 2-8
[23]; 1st experiment, […] polymyxin B, ATCC 19606, A329, A390 and A473 not taken
  MIC range with PB (0.25x MIC) Oct. 1, 2008 n = 8: 1 to 8 µg/mL
[23]; 2nd experiment
  Range ratios MIC without PB/MIC with PB Oct. 14, 2008 n = 11: 1-16
[23]; 2nd experiment, 0.06 μg/ml polymyxin B, all strains except the ATCC strain
  MIC range with PB (0.25x MIC) Oct. 14, 2008 n = 11: 0.5 to 8 µg/mL
